Source: US5721338A, “Inhibitors of oligosaccharyl transferase” (California Institute of Technology, priority 1995, dated 1998)
Starred links: 1 amine or outer side, 2 acyl side, 3 side chain; linkers in the order of their positions; H or OH if unused. Positions of bridges follow the written chain, without caps; N, C: chain ends. Non-standard residues stand in square brackets, D forms with d. Residues, ends and D or L forms follow the SMILES beside them. Phe(4-NO2) = N[C@@H](Cc1ccc([N+](=O)[O-])cc1)C(=O)O; X1 = O=C(CCCCC[*:2])[*:1]; Dab = NCC[C@H](N)C(=O)O

Experiments:
[1] = biological target: T1, S. Cerevisiae Oligosaccharyl Transferase (Saccharomyces cerevisiae, UniProt P39007); experiment: Inhibition kinetics (competitive inhibition) with solubilized yeast oligosaccharyl transferase; glycopeptide production from Dol-P-P-GlcNAc-[3H]-GlcNAc and Bz-Asn-Leu-Thr-NHMe; type: biochemical; settings: 37.5 μM Bz-Asn-Leu-Thr-NHMe, control rate 701 dpm min^-1
T1 construct: a solubilized preparation of the yeast enzyme oligosaccharyl transferase; endogenous in cells; host or cells: Saccharomyces cerevisiae (crude, Triton-solubilized enzyme preparation)
Method: (§1) Inhibition kinetics with 2 and S. Cerevisiae Oligosaccharyl Transferase:
(§2) Prior to assaying, 26.3 μL of the crude enzyme were equilibrated for thirty minutes in the presence of 197.4 μL assay buffer (50 mM Hepes, pH 7.5, 1% Triton-X, 140 mM sucrose, 0.5 mg/mL phosphatidylcholine, and 10 mM MnCl2) and 13.15 μL 750 μM Bz-Asn-Leu-Thr-NHMe in DMSO. […] A 100,000 dpm aliquot of Dol-P-P-GlcNAc-[^3 H]-GlcNAc (specific activity 36.5 Ci/mmol) was brought to dryness in an eppendorf. The lipid-linked donor was then redissolved 10 μL assay buffer. The assay was initiated by the addition of 190 μL of the equilibrated enzyme. Four time points were obtained by removing 40 μL aliquots at 1.5 minute intervals. Each aliquot was quenched in a solution of 1.2 mL 3/2/1 chloroform/methanol/4 mM MgCl2. The aqueous layer was removed and the organic layer was washed twice with 0.6 mL TUP. The aqueous layers were combined and counted (dpm) in 5 mL Ecolite (ICN). The organic layers were brought to dryness under nitrogen solvable (200 μL, Dupont) was added to each organic fraction and agitated for 45 minutes. The organic layers were counted (dpm) in 7 mL Formula 989 (DuPont). Glycopeptide production is expressed as disintegrations per minute based on the values obtained from the dpms of the aqueous layer corrected for the total dpms in the aqueous and organic layers combined.

[2] = substrate: CNC(=O)[C@@H](NC(=O)[C@H](CC(C)C)NC(=O)[C@H](CC(N)=O)NC(=O)c1ccccc1)[C@@H](C)O; experiment: as above; type: biochemical, S. Cerevisiae; settings: other: competing substrate of OT, used in the Ki equation; pH 7.5
Method: as §1, §2

Row | rate of glycopeptide production ([1]; 10 nM solution of 2) [dpm min^-1] | rate of glycopeptide production ([1]; 100 nM solution of 2) [dpm min^-1] | Molecule | Km [2] [µM]
1 | 572 | 296 | CC(C)[C@H](NC(=O)[C@@H](NC(=O)[C@@H]1CSCCCCCC(=O)N[C@@H](CCN)C(=O)N1)[C@@H](C)O)C(=O)N[C@H](C(=O)N[C@@H](Cc1ccc([N+](=O)[O-])cc1)C(N)=O)[C@@H](C)O [Compound 2, Cyclo(Amb-Cys)-Thr-Val-Thr-Nph] ([Dab]CTVT[Phe(4-NO2)]-NH2; linker N-2 via X1) | –
2 | – | – | S. Cerevisiae Oligosaccharyl Transferase (Saccharomyces cerevisiae S288C) (protein, a solubilized preparation of the yeast enzyme oligosaccharyl transferase; endogenous in cells; host or cells: Saccharomyces cerevisiae (crude, Triton-solubilized enzyme preparation)) MGSDRSCVLSVFQTILKLVIFVAIFGAAISSRLFAVIKFESIIHEFDPWFNYRATKYLVNNSFYKFLNWFDDRTWYPLGRVTGGTLYPGLMTTSAFIWHALRNWLGLPIDIRNVCVLFAPLFSGVTAWATYEFTKEIKDASAGLLAAGFIAIVPGYISRSVAGSYDNEAIAITLLMVTFMFWIKAQKTGSIMHATCAALFYFYMVSAWGGYVFITNLIPLHVFLLILMGRYSSKLYSAYTTWYAIGTVASMQIPFVGFLPIRSNDHMAALGVFGLIQIVAFGDFVKGQISTAKFKVIMMVSLFLILVLGVVGLSALTYMGLIAPWTGRFYSLWDTNYAKIHIPIIASVSEHQPVSWPAFFFDTHFLIWLFPAGVFLLFLDLKDEHVFVIAYSVLCSYFAGVMVRLMLTLTPVICVSAAVALSKIFDIYLDFKTSDRKYAIKPAALLAKLIVSGSFIFYLYLFVFHSTWVTRTAYSSPSVVLPSQTPDGKLALIDDFREAYYWLRMNSDEDSKVAAWWDYGYQIGGMADRTTLVDNNTWNNTHIAIVGKAMASPEEKSYEILKEHDVDYVLVIFGGLIGFGGDDINKFLWMIRISEGIWPEEIKERDFYTAEGEYRVDARASETMRNSLLYKMSYKDFPQLFNGGQATDRVRQQMITPLDVPPLDYFDEVFTSENWMVRIYQLKKDDAQGRTLRDVGELTRSSTKTRRSIKRPELGLRV | 25
